In US20250212875A1, “PESTICIDAL AND HERBICIDAL COMPOUNDS AND METHODS OF USE THEREOF” (AG PLENUS LTD, priority 2022, published 2025):

Key:
[1] = tested on: Amaranthus retroflexus; assay: LTP pre-emergence greenhouse screen; type: in vivo
Description: (§1) Sowing was performed one day before application.
(§2) Percentage of emergence was evaluated at 15 DAA.

[2] = tested on: Arabidopsis thaliana; assay: HTPS post-emergence on miniature dicot model plants; type: in vivo; conditions: green area (RGB), maximal concentration 1.5 kg/ha, read-out: Max inhibition (%)
Description: Arabidopsis thaliana seeds were sown in 96 well plates filled with irrigated Sweet sand (10%>clay) that is washed from salts and minerals using tap water. 5-10 seeds were sown in the center of each well. 7-8 days post sowing, at 2 true leaves stage, thinning out was performed to ensure that compound application is done on a single plant per well. The plates were placed in a controlled greenhouse in a random order inside a bath which allows flooding irrigation with tap water supplemented with a fertilizer. Applied compounds were dissolved into a final solution of 50% acetone, 49.9% DDW, 0.1% tween-20. A 96 well plate was used as a stock plate for preparing application solutions for 8 repeats. Each row contained different concentrations per chemical. Maximal concentration for application was 1.5 kg/ha and dilution factor is 2.5. Chemical application was performed one day after thinning out in a chemical hood. 5 μL applied on first two true leaves in each well using 12 channel pipettes. Data collection: RGB (red, green, blue) data for green area per well was documented using camera. Data is collected at a few time points during the experiment: one day after thinning and before chemical application, two-, six- or nine-days post application. During the last two documentations, visual phenotyping was performed. Data analysis: Given RGB results and visual phenotype scores, a student t-test conducted to compare between treatment and control performance for continuous data (RGB) and Fisher exact test to analyze the non-continuous data (phenotypic scores). Dose-Response curves are generated for each treatment to infer ED50 and max. inhibition parameters, using treatment's log concentration range as the […] variable and normalized green area. Plate imaging performed at 11 and 18 DAA. RGB data for green area per well was documented and used to extract % inhibition. Dose-Response curves were built for each treatment to infer EC50, EC75 and EC90 parameters, using treatment's log concentration range as the independent variable and normalized green area as the dependent variable. Treatments were compared to controls performance given RGB results and using student's t-test (p-val≤0.05). Compounds 101, 110, 112, 119, 124, 125, 146, 154, 157, 172, 170, 169, 112, and 166 were applied in either or both pre- and post-emergence mode to either or both monocot and dicot model plants, following the methods described above. The compounds were applied as a gradient of concentrations as listed above, from which the ED50 was calculated.

[3] = tested on: Alopecurus myosuroides; assay: LTP pre-emergence greenhouse screen; type: in vivo
Description: as §1, §2

[4] = tested on: Amaranthus palmeri; assay: LTP pre-emergence greenhouse screen; type: in vivo
Description: as §1, §2

[5] = tested on: Poa annua; assay: LTP pre-emergence greenhouse screen; type: in vivo
Description: as §1, §2

[6] = tested on: Eragrostis teff; assay: HTPS pre-emergence on monocot model plants; type: in vivo; conditions: green area (RGB)
Description: A 96 well plate was used as a stock plate for preparing application solutions for 8 repeats. Each row contained different concentrations per chemical. Maximal concentration for application was 1.5 kg/ha and dilution factor is 2.5. Chemical application was performed one day after thinning out in a chemical hood. 5 μL applied on first two true leaves in each well using 12 channel pipettes. Data collection: RGB (red, green, blue) data for green area per well was documented using camera. Data is collected at a few time points during the experiment: one day after thinning and before chemical application, two-, six- or nine-days post application. During the last two documentations, visual phenotyping was performed. Data analysis: Given RGB results and visual phenotype scores, a student t-test conducted to compare between treatment and control performance for continuous data (RGB) and Fisher exact test to analyze the non-continuous data (phenotypic scores). Dose-Response curves are generated for each treatment to infer ED50 and max. inhibition parameters, using treatment's log concentration range as the […] variable and normalized green area.
These experiments are conducted similarly except that either Arabidopsis thaliana or Eragrostis teff seeds were sowed (5-10 or 5-7, respectively), plant thinning out was not performed, compound dissolved into a final solution of 50% acetone, 49.9% DDW, compound application was done at 30 μL volume per well directly on sowed soil before plant emergence and data was collected 10 or 7 days after chemical application on dicot or monocot plants, respectively.
Plate imaging performed at 11 and 18 DAA. RGB data for green area per well was documented and used to extract % inhibition. […]
(§3) Compounds 101, 110, 112, 119, 124, 125, 146, 154, 157, 172, 170, 169, 112, and 166 were applied in either or both pre- and post-emergence mode to either or both monocot and dicot model plants, following the methods described above. The compounds were applied as a gradient of concentrations as listed above, from which the ED50 was calculated.

[7] = tested on: monocot and eudicot weeds species; assay: LTP weed panel, summary in words; type: in vivo; conditions: for growth inhibition (in words): mainly in pre-emergence applications
[8] = tested on: Matricaria chamomilla; assay: LTP pre-emergence greenhouse screen; type: in vivo
Description: as §1, §2

[9] = tested on: Amaranthus tuberculatus; assay: LTP post-emergence greenhouse screen; type: in vivo
[10] = tested on: monocot and dicot model plants; assay: HTPS model plants, summary in words; type: in vivo; conditions: HTPS systems where they were tested
Description: Arabidopsis thaliana seeds were sown in 96 well plates filled with irrigated Sweet sand (10%>clay) that is washed from salts and minerals using tap water. 5-10 seeds were sown in the center of each well. 7-8 days post sowing, at 2 true leaves stage, thinning out was performed to ensure that compound application is done on a single plant per well. The plates were placed in a controlled greenhouse in a random order inside a bath which allows flooding irrigation with tap water supplemented with a fertilizer. Applied compounds were dissolved into a final solution of 50% acetone, 49.9% DDW, 0.1% tween-20.
A 96 well plate was used as a stock plate for preparing application solutions for 8 repeats. Each row contained different concentrations per chemical. Maximal concentration for application was 1.5 kg/ha and dilution factor is 2.5. Chemical application was performed one day after thinning out in a chemical hood. 5 μL applied on first two true leaves in each well using 12 channel pipettes. […]
as §3

[11] = tested on: Galium aparine; assay: LTP post-emergence greenhouse screen
Description: (§4) A basic panel of eight weed species (Table 3) sowed in 4×4×7 cm plastic pots containing a garden mix (klasmann). Each specie was sowed in a separate pot. In each pot, 10-15 seeds were sowed according to the specie viability. Timing of application determined at a 1-2 true leaf stage. The plants grew for 30 days in a controlled greenhouse (26±2° C. day, 20±2° C. night). Flood irrigation (tap water+Shefer 5:3:8 8 mM) was given at a 50% water content by weight. Two days before application, the tested plants thinned down to three plants per pot. Compounds were soluble in water (DDW), and commercial herbicide control was soluble in formulation B (Table 4). Before application, 1% (v/v) crop oil and 0.02% (v/v) surfactant (Tergitol™ 15-S-7) were added to the solution. […] Plants were evaluated at 3 time points (4, 8, 12 days after application (DAA)). At each time point, visual phenotyping was recorded using a scale of 0-6 (0: no visible effect, 6: maximum effect). […]
(§5) All experiments included an untreated control, a solvent control, and a positive control (commercial herbicide A.I.). Statistical analysis for visual phenotyping determined by a median value of ≥3.5 and Fisher test (pval≤0.05). Statistical analysis for dry weight determined by % inhibition ≥50 and T test (pval≤0.05), as well as Wilcox test (pval≤0.05).

[12] = tested on: Echinochloa colona; assay: LTP pre-emergence greenhouse screen; type: in vivo
Description: as §1, §2

[13] = tested on: Digitaria sanguinalis; assay: LTP pre-emergence greenhouse screen; type: in vivo
Description: as §1, §2

[14] = tested on: Echinochloa crus-galli; assay: LTP pre-emergence greenhouse screen; type: in vivo
Description: as §1, §2

[15] = tested on: Lolium multiflorum; assay: LTP pre-emergence greenhouse screen; type: in vivo
Description: as §1, §2

[16] = tested on: Lolium perenne; assay: LTP pre-emergence greenhouse screen; type: in vivo
Description: as §1, §2

[17] = tested on: Phalaris paradoxa; assay: LTP pre-emergence greenhouse screen; type: in vivo
Description: as §1, §2

[18] = tested on: Setaria viridis; assay: LTP post-emergence greenhouse screen
Description: (§6) A basic panel of eight weed species (Table 3) sowed in 4×4×7 cm plastic pots containing a garden mix (klasmann). Each specie was sowed in a separate pot. In each pot, 10-15 seeds were sowed according to the specie viability. Timing of application determined at a 1-2 true leaf stage. The plants grew for 30 days in a controlled greenhouse (26±2° C. day, 20±2° C. night). Flood irrigation (tap water+Shefer 5:3:8 8 mM) was given at a 50% water content by weight. Two days before application, the tested plants thinned down to three plants per pot. Compounds were soluble in water (DDW), and commercial herbicide control was soluble in formulation B (Table 4). Before application, 1% (v/v) crop oil and 0.02% (v/v) surfactant (Tergitol™ 15-S-7) were added to the solution. Application was conducted with an industrial sprayer (TeeJet 6502E nozzle) at a rate of 2 kg/ha and spray volume of 4801/ha. Plants were evaluated at 3 time points (4, 8, 12 days after application (DAA)). At each time point, visual phenotyping was recorded using a scale of 0-6 (0: no visible effect, 6: maximum effect). At 12 DAA, plants foliage was harvested, dried and weighed for dry weight analysis.
(§7) Post-emergence advanced wide panel experiment included 24 weed species (Table 5). Application was conducted at 2 rates of 2 kg/ha and 0.25 kg/ha and spray volume of 480 l/ha. Visual phenotyping was recorded at 4, 11, 17 and 20 DAA using a scale of 0-6 (0: no visible effect, 6: maximum effect). At 21 DAA, plants foliage was harvested, dried, and weighed for dry weight analysis. All experiments included an untreated control, a solvent control, and a positive control (commercial herbicide A.I.). Statistical analysis for visual phenotyping determined by a median value of ≥3.5 and Fisher test (pval≤0.05). Statistical analysis for dry weight determined by % inhibition ≥50 and T test (pval≤0.05), as well as Wilcox test (pval≤0.05).

[19] = tested on: Alopecurus monureide's; assay: LTP post-emergence greenhouse screen
Description: as §6, §7

[20] = tested on: Lolium perenne; assay: LTP post-emergence greenhouse screen
Description: as §4, §5

[21] = tested on: Poa annua; assay: LTP post-emergence greenhouse screen
Description: as §6, §7

[22] = tested on: Echinochloa colona; assay: LTP post-emergence greenhouse screen
Description: as §6, §7

[23] = tested on: Digitaria sanguinalis; assay: LTP post-emergence greenhouse screen
Description: as §6, §7

[24] = tested on: Lolium multiflorum; assay: LTP post-emergence greenhouse screen
Description: as §4, §5

[25] = tested on: Echinochloa crus-galli; assay: LTP post-emergence greenhouse screen
Description: as §6, §5

[26] = tested on: Amaranthus palmeri; assay: LTP post-emergence greenhouse screen
Description: as §4, §5

CC(N)CC/C=C/CC(=O)O (stereo not shown) [Compound 169]
IG: inhibited growth [1]: IG (80)
inhibition at up to 1500 g/ha [2]: 100%

NC(C/C=C/CC(=O)O)C1CC1 (stereo not shown) [Compound 146]
IG: inhibited growth [3]: IG (60)
IG: inhibited growth [4]: IG (80)
IG: inhibited growth [5]: IG (60)
inhibition at up to 1500 g/ha [2]: 100%
Max inhibition (%) [6]: 100%
growth inhibition (in words) [7]: very good to moderate growth inhibition

C[C@@H](O)[C@@H](N)/C=C/C=C/C(=O)O [Compound 110]
IG: inhibited growth [4]: IG (80)
IG: inhibited growth [8]: IG (60)
IG: inhibited growth [5]: IG (60)
Drd: disturbed root growth [9]: Drd (80)
inhibition at up to 1500 g/ha [2]: 100%
activity on dicots and monocots (in words) ([7]; applied pre-emergence): good to moderate activity
control (in words) [10]: excellent to very good control
Bl: bleaching [11]: Bl (60)

CC(C)C(N)C/C=C/CC(=O)O (stereo not shown) [Compound 157]
inhibition at up to 1500 g/ha [2]: 100%

CC(O)C(N)/C=C/CCC(=O)O (stereo not shown) [Compound 172]
inhibition at up to 1500 g/ha [2]: 100%

CC(N)CCC/C=C/C(=O)O (stereo not shown) [Compound 170]
IG: inhibited growth [1]: IG (90)
inhibition at up to 1500 g/ha [2]: 100%

NC1CCC/C(=C\CCC(=O)O)C1 (stereo not shown) [Compound 119]
IG: inhibited growth [4]: IG (80)
IG: inhibited growth [12]: IG (60)
inhibition at up to 1500 g/ha [2]: 100%
growth inhibition (in words) [7]: very good to moderate growth inhibition

NC1CCCC(/C=C/CC(=O)O)C1 (stereo not shown) [Compound 124]
IG: inhibited growth [3]: IG (80)
IG: inhibited growth [4]: IG (80)
IG: inhibited growth [12]: IG (100)
IG: inhibited growth [5]: IG (100)
inhibition at up to 1500 g/ha [2]: 100%
growth inhibition (in words) [7]: very good to moderate growth inhibition

NC1CCCC(C#CCC(=O)O)C1 (stereo not shown) [Compound 154]
IG: inhibited growth [3]: IG (80)
IG: inhibited growth [4]: IG (80)
IG: inhibited growth [12]: IG (100)
IG: inhibited growth [5]: IG (100)
inhibition at up to 1500 g/ha [2]: 100%
growth inhibition (in words) [7]: very good to moderate growth inhibition

CC(O)C(N)C/C=C/CC(=O)O (stereo not shown) [Compound 101]
IG: inhibited growth [3]: IG (80)
IG: inhibited growth [13]: IG (100)
IG: inhibited growth [12]: IG (100)
IG: inhibited growth [14]: IG (100)
IG: inhibited growth [15]: IG (100)
IG: inhibited growth [16]: IG (80)
IG: inhibited growth [17]: IG (80)
IG: inhibited growth [5]: IG (100)
inhibition at up to 1500 g/ha [2]: 100%
control of weeds (in words) ([7]; monocot and eudicot weeds species, post-emergence and pre-emergence, most of the species tested): excellent control
control (in words) [10]: excellent to very good control
DAB: disturbed apical bud [18]: IG (60), DAB (60)
IG: inhibited growth [18]: IG (60), DAB (60)
Bl: bleaching [19]: 60
DAB: disturbed apical bud [19]: IG (80), DAB (80),
Drd: disturbed root growth [19]: 80
IG: inhibited growth [19]: IG (80), DAB (80),
Drd: disturbed root growth [20]: 80
IG: inhibited growth [20]: 60
Drd: disturbed root growth [21]: IG (80), Drd (80)
IG: inhibited growth [21]: IG (80), Drd (80)
DAB: disturbed apical bud [22]: 60
Drd: disturbed root growth [22]: Drd (80)
IG: inhibited growth [22]: 80
DAB: disturbed apical bud [23]: IG (80), DAB (80),
Drd: disturbed root growth [23]: Drd (80)
IG: inhibited growth [23]: IG (80), DAB (80),
Drd: disturbed root growth [24]: Drd (60)
DAB: disturbed apical bud [25]: 60
Drd: disturbed root growth [25]: Drd (80)
IG: inhibited growth [25]: 80

NC1(C/C=C/CC(=O)O)CCC1 [Compound 125]
IG: inhibited growth [3]: IG (60)
IG: inhibited growth [4]: IG (80)
IG: inhibited growth [16]: IG (80)
IG: inhibited growth [8]: IG (60)
IG: inhibited growth [5]: IG (100)
inhibition at up to 1500 g/ha [2]: 100%
growth inhibition (in words) [7]: very good to moderate growth inhibition
IG: inhibited growth [18]: IG (60)
IG: inhibited growth [21]: IG (60)
IG: inhibited growth [26]: IG (60)

CCCC(N)C/C=C/CC(=O)O (stereo not shown) [Compound 166]
inhibition at up to 1500 g/ha [2]: 75%
Max inhibition (%) [6]: 47%
